These results are taken from patent publication US10556907B2 (AbbVie Inc., priority 2015, dated 2020).

Assay in all cases: Method 1: intracellular Ca2+ release (FLIPR, Calcium 5) in recombinant CHO-K1 cells
Holding throughout (assay type): cell-based

The target in one experiment is T1, human S1PR3 receptor (Homo sapiens, UniProt Q99500).
T1 construct: host or cells: CHO-K1
The settings on record: (1): determined with method 1; read-out: S1P3 EC50. On the procedure:
(§1) Agonistic activity was measured using two different methods, described below.
(§2) Method 1. Intracellular Ca^2+ Release
(§3) Agonist potency and intrinsic activity was assessed by measurement of intracellular Ca^2+ release. Recombinant CHO-K1 cells (Euroscreen, Brussels, Belgium) expressing human S1PR5, S1PR1, S1PR3 or S1PR4 receptors, aequorin, and GTP binding protein Gq/i5 were cultured using a medium containing nutrient mixture F-12 Ham (Sigma-Aldrich) with 10% FBS, and 100 μg/mL gentamicin and equilibrated at 5% CO2.
(§4) 15.000 cells in 20 μL medium were seeded into Biocoat poly-D-Lysine coated 384 well plates (Becton Dickinson #35-6663) and grown to 95% confluency after 24 h.
(§5) Culture medium was replaced by an assay buffer consisting of HBBS with Ca^2+ and Mg^2+ (Invitrogen #14025-050), 20 mmol/L Hepes (Sigma-Aldrich #H-3375), 2.5 mmol/L probenecid (Sigma-Aldrich #P-8761, and 0.1% BSA (Sigma-Aldrich #A-7030) pH 7.4. The Calcium 5 no-wash FLIPR assay kit (Molecular Devices #5000625) was performed as described in the kit instructions. Cells were incubated with Calcium 5 dye for 1 h at 37° C., 5% CO2 in the dark. After 45 min adaptation to RT assessment of agonist stimulation of intracellular Ca^2+ release was performed by addition of test compounds at concentrations obtained by serial dilution. Phospho-fingolimod was used as positive control. Antagonists were pre-incubated for 10 min with cells before addition of the agonist (phospho-fingolimod at EC80). Measurements were performed using a fluorometric imaging plate reader FLIPR® tetra (Molecular Devices). Agonist at the human S1P receptors were characterized by deducing EC50 (potency) values from a nonlinear fit to the measured fluorescence raw data after normalization to the reference agonist (phospho-fingolimod) curve.

The target in another experiment is T2, human S1PR1 receptor (Homo sapiens, UniProt P21453).
T2 construct: host or cells: CHO-K1
The note with it: (1): determined with method 1; read-out: S1P1 EC50. On the procedure: as §1, §2, §3, §4, §5

Another experiment deals with T3, human S1PR5 receptor (Homo sapiens, UniProt Q9H228).
T3 construct: host or cells: CHO-K1
The note with it: agonist potency, determined with method 1 (symbols A-D); read-out: S1P5 EC50 range. The procedure:
as §1, §2, §3, §4, §5

T2 sequence (P21453 whole entry): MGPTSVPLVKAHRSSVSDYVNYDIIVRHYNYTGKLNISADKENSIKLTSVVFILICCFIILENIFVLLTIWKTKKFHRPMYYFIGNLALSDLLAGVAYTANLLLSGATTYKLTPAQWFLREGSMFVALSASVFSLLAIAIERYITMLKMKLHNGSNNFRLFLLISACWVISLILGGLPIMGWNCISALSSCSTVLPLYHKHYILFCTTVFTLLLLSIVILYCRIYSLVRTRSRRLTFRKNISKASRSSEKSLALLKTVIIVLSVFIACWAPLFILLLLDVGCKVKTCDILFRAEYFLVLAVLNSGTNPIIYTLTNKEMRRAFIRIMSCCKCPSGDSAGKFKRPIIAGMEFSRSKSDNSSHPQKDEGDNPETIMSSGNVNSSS
T1 sequence (Q99500 whole entry): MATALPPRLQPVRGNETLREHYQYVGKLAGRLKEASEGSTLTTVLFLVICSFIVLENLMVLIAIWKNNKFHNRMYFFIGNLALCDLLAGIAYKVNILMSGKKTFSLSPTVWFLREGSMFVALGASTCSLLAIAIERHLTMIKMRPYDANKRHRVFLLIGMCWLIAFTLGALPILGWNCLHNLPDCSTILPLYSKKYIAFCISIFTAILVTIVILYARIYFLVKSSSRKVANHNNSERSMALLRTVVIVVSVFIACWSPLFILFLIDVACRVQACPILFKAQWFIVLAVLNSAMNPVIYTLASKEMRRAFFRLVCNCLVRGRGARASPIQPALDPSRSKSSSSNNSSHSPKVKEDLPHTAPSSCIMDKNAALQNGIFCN
T3 sequence (Q9H228 whole entry): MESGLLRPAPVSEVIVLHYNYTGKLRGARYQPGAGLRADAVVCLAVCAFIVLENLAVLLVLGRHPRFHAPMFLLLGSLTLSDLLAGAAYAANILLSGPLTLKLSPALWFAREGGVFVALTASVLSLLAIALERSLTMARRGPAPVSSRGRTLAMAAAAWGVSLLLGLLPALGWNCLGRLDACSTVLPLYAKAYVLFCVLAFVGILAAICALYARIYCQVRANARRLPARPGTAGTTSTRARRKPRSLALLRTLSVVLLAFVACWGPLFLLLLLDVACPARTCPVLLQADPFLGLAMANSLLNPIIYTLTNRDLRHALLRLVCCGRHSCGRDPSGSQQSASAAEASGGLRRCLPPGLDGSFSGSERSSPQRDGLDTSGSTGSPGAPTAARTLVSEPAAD

For `CC(CC(=O)O)N1CCc2nc(-c3ccc(OCc4cccc(F)c4)cc3)ncc2C1` (stereo not drawn) [Compound 41, 3-(2-(4-((3-fluorobenzyl)oxy)phenyl)-7,8-dihydropyrido[4,3-d]pyrimidin-6(5H)-yl)butanoic acid], the EC50 at human S1PR3 receptor is greater than 1 µM; at human S1PR1 receptor, greater than 1 µM; at human S1PR5 receptor it was less than 0.01 µM.
For `Cc1cc(COc2ccc(-c3ncc4c(n3)CCN(CCC(=O)O)C4)cc2)cc(OC(F)(F)F)c1` [Compound 95, 3-(2-(4-((3-methyl-5-(trifluoromethoxy)benzyl)oxy)phenyl)-7,8-dihydropyrido[4,3-d]pyrimidin-6(5H)-yl)propanoic acid], the results for the EC50 on human S1PR3 receptor, on human S1PR1 receptor and on human S1PR5 receptor were greater than 1 µM, less than 1 µM and less than 0.01 µM, respectively.
In the case of `CC(CC(=O)O)N1CCc2nc(-c3ccc(OCc4ccc(F)c(F)c4)cc3)ncc2C1` (stereo not drawn) [Compound 42, 3-(2-(4-((3,4-difluorobenzyl)oxy)phenyl)-7,8-dihydropyrido[4,3-d]pyrimidin-6(5H)-yl)butanoic acid], the EC50 at human S1PR3 receptor is greater than 1 µM; at human S1PR1 receptor it was greater than 1 µM; at human S1PR5 receptor, less than 0.01 µM.
Take `O=C(O)CCN1CCc2nc(-c3ccc(OCc4ccc(C(F)(F)F)cc4)cc3)ncc2C1` [Compound 81, 3-(2-(4-((4-(trifluoromethyl)benzyl)oxy)phenyl)-7,8-dihydropyrido[4,3-d]pyrimidin-6(5H)-yl)propanoic acid]: the values for the EC50 at human S1PR3 receptor, at human S1PR1 receptor and at human S1PR5 receptor were greater than 1 µM, greater than 1 µM and less than 0.01 µM, respectively.
For `O=C(O)CCN1CCc2nc(-c3ccc(OCc4ccc(Cl)c(Cl)c4)cc3)ncc2C1` [Compound 73, 3-(2-(4-((3,4-dichlorobenzyl)oxy)phenyl)-7,8-dihydropyrido[4,3-d]pyrimidin-6(5H)-yl)propanoic acid], the EC50 was greater than 1 µM on human S1PR3 receptor, greater than 1 µM on human S1PR1 receptor and less than 0.01 µM at human S1PR5 receptor.
On to `CC(CC(=O)O)CN1CCc2nc(-c3ccc(OCc4ccccc4)cc3)ncc2C1` (stereo not drawn) [Compound 21, 4-(2-(4-(benzyloxy)phenyl)-7,8-dihydropyrido[4,3-d]pyrimidin-6(5H)-yl)-3-methylbutanoic acid], for which the EC50 was greater than 1 µM on human S1PR3 receptor, greater than 1 µM at human S1PR1 receptor and 0.01 to 0.1 µM on human S1PR5 receptor.
For `Cc1ccc(C(F)(F)F)c(COc2ccc(-c3ncc4c(n3)CCN(CCC(=O)O)C4)cc2)c1` [Compound 91, 3-(2-(4-((5-methyl-2-(trifluoromethyl)benzyl)oxy)phenyl)-7,8-dihydropyrido[4,3-d]pyrimidin-6(5H)-yl)propanoic acid], the half-maximal effective concentration (EC50) at human S1PR3 receptor is greater than 1 µM; at human S1PR1 receptor, greater than 1 µM; on human S1PR5 receptor, 0.1 to 1 µM.
As to `CC(CC(=O)O)N1CCc2nc(-c3ccc(OCc4ccc(Cl)cc4)cc3)ncc2C1` (stereo not drawn) [Compound 44, 3-(2-(4-((4-chlorobenzyl)oxy)phenyl)-7,8-dihydropyrido[4,3-d]pyrimidin-6(5H)-yl)butanoic acid], the EC50 on human S1PR3 receptor is greater than 1 µM; at human S1PR1 receptor it was greater than 1 µM; on human S1PR5 receptor it was 0.01 to 0.1 µM.
For the molecule `Cc1c(COc2ccc(-c3ncc4c(n3)CCN(CCC(=O)O)C4)cc2)cccc1C(F)(F)F` [Compound 94, 3-(2-(4-((2-methyl-3-(trifluoromethyl)benzyl)oxy)phenyl)-7,8-dihydropyrido[4,3-d]pyrimidin-6(5H)-yl)propanoic acid], the EC50 on human S1PR3 receptor was greater than 1 µM; on human S1PR1 receptor, less than 1 µM; at human S1PR5 receptor it was less than 0.01 µM.
In the case of `Cc1ccc(COc2ccc(-c3ccc4c(n3)CCN(CCC(=O)O)C4)cc2)cc1C(F)(F)F` [Compound 154, 3-(2-(4-((3-trifluoromethyl-4-(methyl)benzyl)oxy)phenyl)-7,8-dihydro-1,6-naphthyridin-6(5H)-yl)propanoic acid], the EC50 at human S1PR3 receptor was greater than 1 µM; on human S1PR1 receptor, greater than 1 µM; at human S1PR5 receptor, 0.01 to 0.1 µM.
As for `O=C(O)CCCN1CCc2nc(C#Cc3ccccc3)ncc2C1` [Compound 48, 4-(2-(phenylethynyl)-7,8-dihydropyrido[4,3-d]pyrimidin-6(5H)-yl)butanoic acid], the concentration for a half-maximal effect (EC50) at human S1PR3 receptor was greater than 1 µM; on human S1PR1 receptor, greater than 1 µM; at human S1PR5 receptor it was 1 to 10 µM.
On to `Cc1cc(-c2ccc3c(n2)CCN(CC(=O)O)C3)ccc1OCc1ccccc1` [Compound 111, 2-(2-(4-(benzyloxy)-3-methylphenyl)-7,8-dihydro-1,6-naphthyridin-6(5H)-yl)acetic acid], for which the EC50 at human S1PR3 receptor is greater than 1 µM; on human S1PR1 receptor, greater than 1 µM; on human S1PR5 receptor, 0.1 to 1 µM.
Turning to `CC(CN1CCc2nc(-c3ccc(OCc4cccc(Cl)c4)cc3)ncc2C1)C(=O)O` (stereo not drawn) [Compound 10, 3-(2-(4-((3-chlorobenzyl)oxy)phenyl)-7,8-dihydropyrido[4,3-d]pyrimidin-6(5H)-yl)-2-methylpropanoic acid], the EC50 at human S1PR3 receptor is greater than 1 µM; on human S1PR1 receptor it was greater than 1 µM; on human S1PR5 receptor, less than 0.01 µM.
Take `O=C(O)CCN1CCc2nc(-c3ccc(OCc4ccc(Cl)cc4)cc3)c(F)cc2C1` [Compound 187, 3-(2-(4-((4-chlorobenzyl)oxy)phenyl)-3-fluoro-7,8-dihydro-1,6-naphthyridin-6(5H)-yl)propanoic acid]: the EC50 at human S1PR3 receptor was greater than 1 µM; at human S1PR1 receptor, less than 1 µM; on human S1PR5 receptor, less than 0.01 µM.
The like results for `CC(CC(=O)O)N1CCc2nc(-c3ccc(OCc4ccccc4)cc3)ncc2C1` (stereo not drawn) [Compound 36, 3-(2-(4-(benzyloxy)phenyl)-7,8-dihydropyrido[4,3-d]pyrimidin-6(5H)-yl)butanoic acid] were, in that order, greater than 1 µM, greater than 1 µM and 0.1 to 1 µM.
The like results for `CC(CN1CCc2nc(-c3cccc(OCc4ccccc4)c3)ccc2C1)C(=O)O` (stereo not drawn) [Compound 107] were, in that order, greater than 1 µM, greater than 1 µM and 1 to 10 µM.
The like results for `O=C(O)CCN1CCc2nc(-c3ccc(OCc4ccc(C(F)(F)F)cc4)cc3)ccc2C1` [Compound 152, 3-(2-(4-((4-trifluoromethylbenzyl)oxy)phenyl)-7,8-dihydro-1,6-naphthyridin-6(5H)-yl)propanoic acid] were, in that order, greater than 1 µM, greater than 1 µM and less than 0.01 µM.
As for `O=C(O)CCCN1CCc2nc(-c3ccc(OCc4ccccc4)cc3)ncc2C1` [Compound 37, 4-(2-(4-(benzyloxy)phenyl)-7,8-dihydro-dihydropyrido[4,3-d]pyrimidin-6(5H)-yl)butanoic acid], the values for the EC50 at human S1PR3 receptor, on human S1PR1 receptor and on human S1PR5 receptor were greater than 1 µM, greater than 1 µM and 0.01 to 0.1 µM, respectively.
As for `O=C(O)CCN1CCc2nc(-c3ccc(OCc4cccc(F)c4)cc3)ncc2C1` [Compound 68, 3-(2-(4-((3-fluorobenzyl)oxy)phenyl)-7,8-dihydropyrido[4,3-d]pyrimidin-6(5H)-yl)propanoic acid], the EC50 at human S1PR3 receptor is greater than 1 µM; at human S1PR1 receptor it was greater than 1 µM; on human S1PR5 receptor, 0.01 to 0.1 µM.
Take `Cc1cc(-c2ccc3c(n2)CCN(CCC(=O)O)C3)ccc1OCc1ccc(F)cc1` [Compound 168, 3-(2-(4-((4-fluorobenzyl)oxy)-3-methylphenyl)-7,8-dihydro-1,6-naphthyridin-6(5H)-yl)propanoic acid]: the EC50 at human S1PR3 receptor was greater than 1 µM; at human S1PR1 receptor, greater than 1 µM; on human S1PR5 receptor, 0.01 to 0.1 µM.
Turning to `CC(C)Oc1ccc(-c2ncc3c(n2)CCN(CCCC(=O)O)C3)cc1Cl` [Compound 47, 4-(2-(3-chloro-4-isopropoxyphenyl)-7,8-dihydropyrido[4,3-d]pyrimidin-6(5H)-yl)butanoic acid], the EC50 on human S1PR3 receptor was greater than 1 µM; on human S1PR1 receptor, greater than 1 µM; at human S1PR5 receptor, 1 to 10 µM.
Turning to `O=C(O)CCN1CCc2nc(-c3ccc(OCc4ccc(F)c(F)c4)cc3)ncc2C1` [Compound 71, 3-(2-(4-((3,4-difluorobenzyl)oxy)phenyl)-7,8-dihydropyrido[4,3-d]pyrimidin-6(5H)-yl)propanoic acid], the EC50 at human S1PR3 receptor was greater than 1 µM; at human S1PR1 receptor, greater than 1 µM; at human S1PR5 receptor it was less than 0.01 µM.
Turning to `CC(CN1CCc2nc(-c3ccc(OCc4ccccc4)cc3Cl)ccc2C1)C(=O)O` (stereo not drawn) [Compound 108, 3-(2-(4-(benzyloxy)-2-chlorophenyl)-7,8-dihydro-1,6-naphthyridin-6(5H)-yl)-2-methylpropanoic acid], the values for the EC50 at human S1PR3 receptor, on human S1PR1 receptor and at human S1PR5 receptor were greater than 1 µM, greater than 1 µM and 0.1 to 1 µM, respectively.
For `CC(CN1CCc2nc(-c3ccc(OCc4ccc(F)cc4)c(Cl)c3)ccc2C1)C(=O)O` (stereo not drawn) [Compound 104, 3-(2-(4-((4-fluorobenzyl)oxy)-3-chlorophenyl)-7,8-dihydro-1,6-naphthyridin-6(5H)-yl)-2-methylpropanoic acid], the EC50 is greater than 1 µM on human S1PR3 receptor, greater than 1 µM at human S1PR1 receptor and 0.01 to 0.1 µM on human S1PR5 receptor.
